Data on 18 compounds can be found in US4771050A, “Thiolactam-n-acetic acid derivatives” (Takeda Chemical Industries, Ltd., priority 1986, dated 1988).

SMILES strings stand for the structures. Like-named read-outs stand apart in the source and are kept apart here.

Experiment [1] concerns the target T1, aldose reductase from human placenta (Homo sapiens, UniProt P15121).
T1 construct: Partially purified aldose reductase from human placenta; from tissue; host or cells: human placenta
The experiment can be described thus: Aldose reductase inhibition (in vitro study). The experiment is classed as biochemical. To be noted: for inhibition at 1 µM: 10^-6 M; for inhibition at 0.1 µM: 10^-7 M. The source says:
1. Aldose reductase inhibition (in vitro study)
Partially purified aldose reductase from human placenta was used for the test of aldose reductase inhibitory effect according to the method of S. Hayman et al. described in Journal of Biological Chemistry, 240, 877 (1965) or the method of J. H. Kinoshita et al. described in Metabolism, 28, Supplement 1, 462 (1979).

Experiment [2] concerns sorbitol accumulation in sciatic nerves of streptozocin diabetic rats. The experiment is described as follows: Inhibition of sorbitol accumulation in the tissue of experimentally induced diabetic rat. In kind it is in vivo, rat (Spraque-Dawley). The following applies: for sorbitol accumulation: sciatic nerve, untreated control group = 100; for inhibition of sorbitol accumulation in vivo compared with control compounds (in words): vs control compounds A, B, C. As for the experimental part: Spraque-Dawley rats (male, 5-7-week-old, 5 animals per group) were fasted for 18 hours, and received injection of 70 mg/kg of streptozocin (Cal Biochem Co.) into the caudal vein under anesthesia with ether, so that diabetic rats were obtained. From immediately after the injection of streptozocin these rats were given orally the test compound of 50 mg/kg or 30 mg/kg in the form of 5% gum arabic suspension twice a day (at 10 a.m. and 5 p.m.) for 2 days. During this period the rats were allowed to take CE-2 diet (Clea Japan, Inc.) and water ad libitum. In the morning on the 3rd day (9 a.m.) the rats were killed (decapitation and venesection), and immediately the sciatic nerves were isolated, from which sorbitol was extracted according to the method of M. J. Peterson et al. described in Metabolism, 28, 456 (1979) and the sorbitol level was determined by the enzymatic method of P.S. Clements et al. in Science, 166, 1007 (1969).

Another experiment has as its system washed rat platelets. The experiment can be described thus: Inhibitory action on platelet aggregation (washed rat platelets). In kind it is cell-based, rat (Spraque-Dawley). The following applies: Rattus norvegicus, Platelet, Mean ± SD (N = 3); for inhibition at 100 µM: 10^-4 M. Here is the method:
3. Inhibitory action on platelet aggregation
Effect of 3,4-dihydro-2,8-diisopropyl-3-thioxo-2H-1,4-benzoxazine-4-acetic acid on platelet aggregation was examined using washed rat platelets.
Platelet rich plasma (PRP) was prepared by centrifuging the blood at 150 xg for 15 min at room temperature. To prepare washed platelets, the PRP was centrifuged at 1500 xg for 10 min and the precipitated platelets were resuspended in Tyrode's solution. The number of platelets used was 7×10^5 cells/mm^3. Platelet aggregation was measured by the turbidmetric method using an aggregometer (Nikko Bioscience, Model PAR-4M, Tokyo). The test compound dissolved in 10 μl of water was added to 250 μl of washed platelet suspension and incubated at 37° C. for 3 min before 10 μl of aggregating agents ([…] of collagen, Nikko Bioscience or 10 μM of ADP, Shigma, St. Louis, Mo., at the final concentration) was added.

[3] abbreviates: 30 mg/kg orally twice a day for 2 days.
Where [4] appears, read: 50 mg/kg orally twice a day for 2 days.

With `CC(C)C1Oc2c(cccc2C(C)(C)C)N(CC(=O)O)C1=S` (centres unmarked) [Example 19, 8-t-butyl-3,4-dihydro-2-isopropyl-3-thioxo-2H-1,4-benzoxazine-4-acetic acid], in experiment [1], the inhibition at 1 µM amounted to 39.3% and the inhibition at 0.1 µM turned out to be 8%. This compound also had a sorbitol accumulation in experiment [2] (setting [3]) of 15%.

In the case of `COc1ccc2c(c1)c(CC(=O)O)c(C)n2C(=O)c1ccc(Cl)cc1` [Indomethacin, reference compound], the inhibition at 300 µM in the experiment on washed rat platelets (read-out: percent inhibition of aggregation, inducer ADP, 3 × 10^-4 M) is 97.2 ± 6.4%. Moreover, the inhibition at 100 µM with washed rat platelets (read-out: percent inhibition of aggregation, inducer ADP) worked out at 102 ± 8.4%; in the experiment on washed rat platelets (read-out: percent inhibition of aggregation, inducer collagen), 28.5 ± 1.9%.

`CC(C)C1Oc2ccccc2N(CC(=O)O)C1=S` (centres unmarked) [Example 1, 3,4-dihydro-2-isopropyl-3-thioxo-2H-1,4-benzoxazine-4-acetic acid]: in experiment [1], the inhibition at 1 µM was 46.7%. Further, in experiment [1], the inhibition at 0.1 µM was determined as 19.1%. Further, the sorbitol accumulation in experiment [2] (setting [3]) worked out at 51%; in experiment [2] (setting [4]), 18%.

As to `CC(C)C1Oc2c(F)cccc2N(CC(=O)O)C1=S` (centres unmarked) [Example 4, 8-fluoro-3,4-dihydro-2-isopropyl-3-thioxo-2H-1,4-benzoxazine-4-acetic acid], in experiment [1], the inhibition at 1 µM was determined as 45.6% and the inhibition at 0.1 µM stood at 3.8%. The compound further displayed a sorbitol accumulation in experiment [2] (setting [3]) of 45%. In experiment [2] (setting [4]), this compound had a sorbitol accumulation of 14%.

`CC(C)C1Oc2ccc(F)cc2N(CC(=O)O)C1=S` (centres unmarked) [Example 2, 6-fluoro-3,4-dihydro-2-isopropyl-3-thioxo-2H-1,4-benzoxazine-4-acetic acid]: in experiment [1], the inhibition at 1 µM was determined as 43.9% and the inhibition at 0.1 µM turned out to be 8.7%. The same compound showed a sorbitol accumulation in experiment [2] (setting [3]) of 33%. Further, the sorbitol accumulation in experiment [2] (setting [4]) turned out to be 12%. Further, the “inhibition of sorbitol accumulation in vivo compared with control compounds (in words)” value in experiment [2] is listed as “The difference is particularly evident”.

On to `CC(C)C1Oc2c(C3CCCCC3)cccc2N(CC(=O)O)C1=S` (centres unmarked) [Example 20, 8-cyclohexyl-3,4-dihydro-2-isopropyl-3-thioxo2H-1,4-benzoxazine-4-acetic acid], for which, in experiment [1], the inhibition at 1 µM worked out at 38.4% and the inhibition at 0.1 µM came out at 4.6%. In experiment [2] (setting [3]), this compound came in with a sorbitol accumulation of 25%.

On to `CC(C)C1Oc2c(Cl)cccc2N(CC(=O)O)C1=S` (centres unmarked) [Example 3, 8-chloro-3,4-dihydro-2-isopropyl-3-thioxo-2H-1,4-benzoxazine-4-acetic acid], for which, in experiment [1], the inhibition at 1 µM was 48.9% and the inhibition at 0.1 µM was 8.9%. This compound also returned a sorbitol accumulation in experiment [2] (setting [4]) of 23%.

In the case of `O=C(O)CN1C(=S)CSc2ccccc21` [Control B, 3,4dihydro-3-thioxo-2H--1,4benzothiazine-4-acetic acid, reference compound], in experiment [1], the inhibition at 1 µM came to 43.1% and the inhibition at 0.1 µM stood at 15.7%. In experiment [2] (setting [4]), this compound registered a sorbitol accumulation of 78%.

Turning to `COc1ccc2c(c1)OC(C(C)C)C(=S)N2CC(=O)O` (centres unmarked) [Example 7, 3,4-dihydro-2-isopropyl-7-methoxy-3-thioxo-2H-1,4-benzoxazine-4-acetic acid], in experiment [1], the inhibition at 1 µM was found to be 50% and the inhibition at 0.1 µM turned out to be 14.9%. In addition, the sorbitol accumulation in experiment [2] (setting [3]) is recorded as 27%.

Turning to `CC(C)C1Oc2cc(F)ccc2N(CC(=O)O)C1=S` (centres unmarked) [Example 17, 7-fluoro-3,4-dihydro-2isopropyl3-thioxo-2H-1,4-benzoxazine-4-acetic acid], in experiment [1], the inhibition at 1 µM was determined as 45.7% and the inhibition at 0.1 µM came to 2.6%. For the same compound, in experiment [2] (setting [3]), the sorbitol accumulation is on record as 62%.

On to `COc1cccc2c1OC(C(C)C)C(=S)N2CC(=O)O` (centres unmarked) [Example 5, 3,4-dihydro-2-isopropyl-8-methoxy-3-thioxo-2H-1,4-benzoxazine-4-acetic acid], for which the inhibition at 1 µM in experiment [1] was found to be 48.1%. In addition, the inhibition at 0.1 µM in experiment [1] came out at 17.3%. For the same compound, the figures for the sorbitol accumulation in experiment [2] (setting [3]) and in experiment [2] (setting [4]) were 29% and 11%, respectively.

Take `O=C(O)CN1C(=S)COc2ccc(F)cc21` [Control A, 6fluoro-3,4-dihydro-3-thioxo-2H--1,4benzoxazine-4-acetic acid, reference compound]: in experiment [1], the inhibition at 1 µM came to 50.8% and the inhibition at 0.1 µM is 25%. The sorbitol accumulation in experiment [2] (setting [3]) is 73%. This compound came in with a sorbitol accumulation in experiment [2] (setting [4]) of 60%.

As for `CC(C)C1Sc2ccccc2N(CC(=O)O)C1=S` (centres unmarked) [Example 9, 3,4-dihydro-2-isopropyl-3-thioxo-2H-1,4-benzothiazine-4-acetic acid], in experiment [1], the inhibition at 1 µM came to 46.4% and the inhibition at 0.1 µM came out at 20%. For the same compound, the sorbitol accumulation in experiment [2] (setting [3]) amounted to 60%. In experiment [2] (setting [4]), this compound showed a sorbitol accumulation of 46%. For the same compound, the “inhibition of sorbitol accumulation in vivo compared with control compounds (in words)” value in experiment [2] is given as “The difference is particularly evident”.

On to `CCc1cccc2c1OC(C(C)C)C(=S)N2CC(=O)O` (centres unmarked) [Example 13, 8-ethyl-3,4-dihydro-2-isopropyl-3-thioxo-2H-1,4-benzoxazine-4-acetic acid], for which, in experiment [1], the inhibition at 1 µM is 46.8% and the inhibition at 0.1 µM amounted to 14.9%. In experiment [2] (setting [3]), this compound showed a sorbitol accumulation of 35%.

On to `CCC(C)C1Sc2ccccc2N(CC(=O)O)C1=S` (centres unmarked) [Example 11, 3,4-dihydro-2-(1-methylpropyl)-3-thioxo-2H-1,4-benzothiazine-4-acetic acid], for which, in experiment [1], the inhibition at 1 µM was 47.1% and the inhibition at 0.1 µM was found to be 15.2%. The compound also gave a sorbitol accumulation in experiment [2] (setting [3]) of 67%. In experiment [2] (setting [4]), this compound gave a sorbitol accumulation of 38%. Moreover, in experiment [2], the “inhibition of sorbitol accumulation in vivo compared with control compounds (in words)” value was “The difference is particularly evident”.

Turning to `CCOc1cccc2c1OC(C(C)C)C(=S)N2CC(=O)O` (centres unmarked) [Example 12, 8-ethoxy-3,4-dihydro-2isopropyl3-thioxo-2H-1,4-benzoxazine-4-acetic acid], in experiment [1], the inhibition at 1 µM was 43% and the inhibition at 0.1 µM amounted to 19.2%. The compound also gave a sorbitol accumulation in experiment [2] (setting [3]) of 58%.

Turning to `Cc1cccc2c1OC(C(C)C)C(=S)N2CC(=O)O` (centres unmarked) [Example 6, 3,4-dihydro-2-isopropyl-8-methyl-3-thioxo2H-1,4-benzoxazine-4-acetic acid], the inhibition at 1 µM in experiment [1] was 48.2%. Besides, the inhibition at 0.1 µM in experiment [1] amounted to 9.4%. For the same compound, the values for the sorbitol accumulation in experiment [2] (setting [3]) and in experiment [2] (setting [4]) were 33% and 16%, respectively.

For `CC1Sc2ccccc2N(CC(=O)O)C1=S` (centres unmarked) [Control C, 3,4dihydro-2-methyl-3-thioxo-2H--1,4benzothiazine-4-acetic acid, reference compound], in experiment [1], the inhibition at 1 µM came out at 48.7% and the inhibition at 0.1 µM worked out at 19.6%. The compound also came in with a sorbitol accumulation in experiment [2] (setting [4]) of 71%.
